Results from PubChem BioAssay AID328 (DTP/NCI, 2004).
Where “and” joins values, the source holds several entries; their conditions need not be identical. Identical values can stand only once. Toxic doses and inconclusive results are not listed. Rule for the calls: active = survival T/C of 150% or more; inactive = T/C below 125% in these data. Positions of bridges follow the written chain, without caps; N, C: chain ends. Non-standard residues stand in square brackets, D forms with d. Residues, ends and D or L forms follow the SMILES beside them. Pip(4-oxo) = O=C1CCN[CH](C(=O)O)C1; NMeV = CN[CH](C(=O)O)C(C)C; Sar = CNCC(=O)O

Tested on: BDF1 mice, P388 leukemia ip, median survival T/C
Experiment: NCI In Vivo Anticancer Drug Screen. Data for tumor model P388 Leukemia (intraperitoneal) in B6D2F1 (BDF1) mice
Settings: endpoint: median survival time, higher = longer survival
Procedure, shortened: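 Each value expresses how treatment altered survival: treated-mouse outcome over vehicle-mouse outcome, both groups bearing the transplanted tumour.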

[1] = dose: 1.0 mg/kg/injection, schedule: Q01DX009 (ip), vehicle: Klucel (hydroxypropylcellulose) (HPC)
[2] = dose: 100.0 mg/kg/injection, schedule: Q01DX001 (ip), vehicle: Klucel (hydroxypropylcellulose) (HPC)
[3] = dose: 200.0 mg/kg/injection, schedule: Q01DX001 (ip), vehicle: Klucel (hydroxypropylcellulose) (HPC)

Measured: T/C

O=C(O)/C=C/c1c(Cl)cccc1Cl
inactive: dose: 50.0 mg/kg/injection, schedule: Q01DX009 (ip), vehicle: saline with Tween-80 106 % of control | dose: 100.0 mg/kg/injection, schedule: Q01DX009 (ip), vehicle: saline with Tween-80 113 % of control

CCc1oc(=O)c(Cc2c(OC(C)=O)cc(OC(C)=O)c3c2OC(c2ccccc2)CC3=O)c(OC(C)=O)c1C (stereo not given)
inactive: [1] 99 % of control | dose: 2.0 mg/kg/injection, schedule: Q01DX009 (ip), vehicle: Klucel (hydroxypropylcellulose) (HPC) 92 % of control | dose: 4.0 mg/kg/injection, schedule: Q01DX009 (ip), vehicle: Klucel (hydroxypropylcellulose) (HPC) 93 % of control | dose: 8.0 mg/kg/injection, schedule: Q01DX009 (ip), vehicle: Klucel (hydroxypropylcellulose) (HPC) 92 % of control

CC[C@@]1(O)C[C@H](OC2CC(N(C)C)C(OC3CC(O)C(OC4CCC(=O)C(C)O4)C(C)O3)C(C)O2)c2c(cc3c(c2O)C(=O)c2c(O)ccc(O)c2C3=O)[C@H]1C(=O)OC (stereo not given in full)
active: dose: 0.5 mg/kg/injection, schedule: Q01DX003 (ip), vehicle: saline 163 % of control | dose: 0.65 mg/kg/injection, schedule: Q01DX009 (ip), vehicle: water 152 % of control | dose: 0.75 mg/kg/injection, schedule: Q01DX010 (ip), vehicle: saline 170 % of control | dose: 1.0 mg/kg/injection, schedule: Q01DX003 (ip), vehicle: saline 190 % of control | dose: 1.0 mg/kg/injection, schedule: Q01DX009 (ip), vehicle: saline 154 % of control | dose: 1.08 mg/kg/injection, schedule: Q01DX009 (ip), vehicle: water 177 % of control and 180 % of control | dose: 1.5 mg/kg/injection, schedule: Q01DX010 (ip), vehicle: saline 175 % of control | dose: 1.73 mg/kg/injection, schedule: Q04DX003 (ip), vehicle: other 155 % of control | dose: 1.8 mg/kg/injection, schedule: Q01DX009 (ip), vehicle: water 225 % of control and 200 % of control | dose: 2.0 mg/kg/injection, schedule: Q01DX009 (ip), vehicle: saline 191 % of control | dose: 2.88 mg/kg/injection, schedule: Q04DX003 (ip), vehicle: other 186 % of control | dose: 5.0 mg/kg/injection, schedule: Q04DX003 (ip), vehicle: water 203 % of control | dose: 8.44 mg/kg/injection, schedule: Q01DX001 (ip), vehicle: water 158 % of control | dose: 11.25 mg/kg/injection, schedule: Q01DX001 (ip), vehicle: water 152 % of control
inactive: dose: 0.39 mg/kg/injection, schedule: Q01DX009 (ip), vehicle: water 111 % of control | dose: 0.5 mg/kg/injection, schedule: Q01DX009 (ip), vehicle: water 117 % of control | dose: 1.0 mg/kg/injection, schedule: Q01DX009 (ip), vehicle: water 86 % of control | dose: 1.0 mg/kg/injection, schedule: Q04DX003 (ip), vehicle: water 102 % of control | dose: 2.0 mg/kg/injection, schedule: Q01DX003 (ip), vehicle: saline 109 % of control | dose: 2.0 mg/kg/injection, schedule: Q01DX009 (ip), vehicle: water 90 % of control | dose: 2.0 mg/kg/injection, schedule: Q04DX003 (ip), vehicle: water 119 % of control | dose: 3.0 mg/kg/injection, schedule: Q01DX010 (ip), vehicle: saline 90 % of control | dose: 4.8 mg/kg/injection, schedule: Q04DX003 (ip), vehicle: other 109 % of control | dose: 10.0 mg/kg/injection, schedule: Q04DX003 (ip), vehicle: water 88 % of control | dose: 13.33 mg/kg/injection, schedule: Q04DX003 (ip), vehicle: water 117 % of control | dose: 15.0 mg/kg/injection, schedule: Q01DX001 (ip), vehicle: water 100 % of control | dose: 20.0 mg/kg/injection, schedule: Q01DX001 (ip), vehicle: water 50 % of control

CCOC(=O)NC1CC2(C=CN1C(=O)OCC)CCCCC2 (stereo not given)
inactive: dose: 37.5 mg/kg/injection, schedule: Q04DX003 (ip), vehicle: Klucel (hydroxypropylcellulose) (HPC) 113 % of control | dose: 75.0 mg/kg/injection, schedule: Q04DX003 (ip), vehicle: Klucel (hydroxypropylcellulose) (HPC) 118 % of control | dose: 150.0 mg/kg/injection, schedule: Q04DX003 (ip), vehicle: Klucel (hydroxypropylcellulose) (HPC) 112 % of control

CC(C)C1NC(=O)C(N)C(C)OC(=O)C(C(C)C)N(C)C(=O)CN(C)C(=O)C2CC(=O)CCN2C1=O (stereo not given) (tested in a mixture with another compound) (H-TV[Pip(4-oxo)][Sar][NMeV]; ester 1-C; configuration not given here)
active: dose: 50.0 micrograms/kg/injection, schedule: Q01DX009 (ip), vehicle: saline + alcohol 168 % of control | dose: 75.0 micrograms/kg/injection, schedule: Q01DX009 (ip), vehicle: saline + alcohol 203 % of control | dose: 100.0 micrograms/kg/injection, schedule: Q01DX009 (ip), vehicle: saline + alcohol 192 % of control | dose: 150.0 micrograms/kg/injection, schedule: Q01DX009 (ip), vehicle: saline + alcohol 230 % of control

O=NN(CCCl)C(=O)N[C@H]1CCCC[C@H]1Cl
active: dose: 5.5 mg/kg/injection, schedule: Q01DX009 (ip), vehicle: Klucel (hydroxypropylcellulose) (HPC) 153 % of control and 194 % of control | dose: 8.5 mg/kg/injection, schedule: Q01DX009 (ip), vehicle: Klucel (hydroxypropylcellulose) (HPC) 159 % of control and 169 % of control and 216 % of control | dose: 8.5 mg/kg/injection, schedule: Q04DX003 (ip), vehicle: Klucel (hydroxypropylcellulose) (HPC) 165 % of control | dose: 13.0 mg/kg/injection, schedule: Q01DX009 (ip), vehicle: Klucel (hydroxypropylcellulose) (HPC) 305 % of control and 192 % of control | dose: 13.0 mg/kg/injection, schedule: Q04DX003 (ip), vehicle: Klucel (hydroxypropylcellulose) (HPC) 235 % of control | dose: 20.0 mg/kg/injection, schedule: Q01DX009 (ip), vehicle: Klucel (hydroxypropylcellulose) (HPC) 250 % of control and 333 % of control and 200 % of control | dose: 20.0 mg/kg/injection, schedule: Q04DX003 (ip), vehicle: Klucel (hydroxypropylcellulose) (HPC) 270 % of control and 300 % of control | dose: 30.0 mg/kg/injection, schedule: Q04DX003 (ip), vehicle: Klucel (hydroxypropylcellulose) (HPC) 300 % of control | dose: 44.0 mg/kg/injection, schedule: Q04DX003 (ip), vehicle: Klucel (hydroxypropylcellulose) (HPC) 300 % of control | dose: 67.0 mg/kg/injection, schedule: Q04DX003 (ip), vehicle: Klucel (hydroxypropylcellulose) (HPC) 300 % of control
inactive: [1] 104 % of control | dose: 1.0 mg/kg/injection, schedule: Q04DX003 (ip), vehicle: Klucel (hydroxypropylcellulose) (HPC) 104 % of control | dose: 1.5 mg/kg/injection, schedule: Q01DX009 (ip), vehicle: Klucel (hydroxypropylcellulose) (HPC) 116 % of control | dose: 2.0 mg/kg/injection, schedule: Q04DX003 (ip), vehicle: Klucel (hydroxypropylcellulose) (HPC) 104 % of control | dose: 2.3 mg/kg/injection, schedule: Q01DX009 (ip), vehicle: Klucel (hydroxypropylcellulose) (HPC) 104 % of control | dose: 4.0 mg/kg/injection, schedule: Q04DX003 (ip), vehicle: Klucel (hydroxypropylcellulose) (HPC) 100 % of control | dose: 30.0 mg/kg/injection, schedule: Q01DX009 (ip), vehicle: Klucel (hydroxypropylcellulose) (HPC) 120 % of control | dose: 44.0 mg/kg/injection, schedule: Q01DX009 (ip), vehicle: Klucel (hydroxypropylcellulose) (HPC) 104 % of control

N#CCCCCCl
inactive: dose: 25.0 mg/kg/injection, schedule: Q01DX001 (ip), vehicle: saline 90 % of control | dose: 50.0 mg/kg/injection, schedule: Q01DX001 (ip), vehicle: saline 100 % of control | dose: 100.0 mg/kg/injection, schedule: Q01DX001 (ip), vehicle: saline 95 % of control and 100 % of control

S=C1NC(c2ccccc2)NC(c2ccccc2)S1 (stereo not given)
inactive: [2] 95 % of control | dose: 100.0 mg/kg/injection, schedule: Q01DX009 (ip), vehicle: Klucel (hydroxypropylcellulose) (HPC) 111 % of control | dose: 100.0 mg/kg/injection, schedule: Q04DX003 (ip), vehicle: Klucel (hydroxypropylcellulose) (HPC) 91 % of control and 100 % of control | [3] 95 % of control | dose: 200.0 mg/kg/injection, schedule: Q01DX009 (ip), vehicle: Klucel (hydroxypropylcellulose) (HPC) 111 % of control | dose: 200.0 mg/kg/injection, schedule: Q04DX003 (ip), vehicle: Klucel (hydroxypropylcellulose) (HPC) 91 % of control and 108 % of control | dose: 400.0 mg/kg/injection, schedule: Q01DX009 (ip), vehicle: Klucel (hydroxypropylcellulose) (HPC) 111 % of control | dose: 400.0 mg/kg/injection, schedule: Q04DX003 (ip), vehicle: Klucel (hydroxypropylcellulose) (HPC) 87 % of control and 108 % of control

COc1ccccc1NC(=O)Oc1ccc(OCc2ccccc2)cc1
inactive: dose: 100.0 mg/kg/injection, schedule: Q04DX003 (ip), vehicle: saline with Tween-80 95 % of control | dose: 200.0 mg/kg/injection, schedule: Q04DX003 (ip), vehicle: saline with Tween-80 87 % of control | dose: 400.0 mg/kg/injection, schedule: Q04DX003 (ip), vehicle: saline with Tween-80 100 % of control

Cc1ccnc(NC(=O)Nc2ccccc2F)c1
inactive: [2] 90 % of control | [3] 95 % of control | dose: 400.0 mg/kg/injection, schedule: Q01DX001 (ip), vehicle: Klucel (hydroxypropylcellulose) (HPC) 105 % of control
